From patent US20080227655A1, “Assessment of effect of an agent on a human biological condition using rodent gene expression panels” (priority 2006, published 2008)
Where “and” joins values, the source holds several entries; their conditions need not be identical. Equal entries are not always repeated.

System: custom murine 40-gene Precision Profile for Rheumatoid Arthritis, whole blood
Experiment: KRN (K/BxN) serum transfer induced arthritis model, whole blood gene expression by QPCR, vehicle or dexamethasone treatment
Assay type: in vivo, female BALB/c mice
Procedure: Whole blood gene expression changes were evaluated in vehicle control and drug-treated murine subjects across two murine models of arthritis according to the following arthritis models:
KRN Transgenic Mouse (K/B×N): K/B×N serum from transgenic mouse used to induce arthritis in female BALB/c mice (n=54). Collagen Induced Arthritis (CIA): Bovine type II collagen used to induce arthritis in male DBA/1 mice (n=54).
In addition, naïve, untreated animal groups at baseline and terminal day were included to control for potential age-related changes in gene expression over the extended study periods. Animal groups, time-points, and treatment schedules are summarized in Tables 20A and 20B, respectively.
Whole blood samples from animals were collected by retro-orbital bleed at selected time-points in accordance with the arthritis study schemas described in […], and transferred into sample collection tubes containing a 1.5× lysis solution and RPMI. Samples were processed into total RNA and cDNA. […] It was anticipated from these murine models would provide a better understanding of the relevant molecular response of arthritis induction and their potential correlation to the human disease condition.
Normal murine subject reference values (represented as normalized Ct or ΔCt values) were established for male DBA/1 mice (n=6 for the CIA study arm) and female BALB/c mice (n=6 for the KRN study arm). In both arms of the study, gene expression response of normal (naïve, non-immunized and untreated) murine subjects were evaluated in groups of 6 each at day 0 and day 60 for the CIA study arm, and at day 0 and day 21 for the KRN study arm (see Tables 20A and 20B).
Gene expression responses for the arthritis-induced murine model were evaluated for untreated mice at day 3 and vehicle-treated mice at days 7, 14 and 21 to characterize disease progression.

[1] = KRN Day 7, Dex-treated, group Average
[2] = KRN Day 7, Dex-treated, individual murine subject, listed as Dex
[3] = KRN Day 7 Dex, group Average, whole blood
[4] = KRN Day 7 Dex, individual mouse, whole blood, listed as Dex
[5] = KRN Day 14, Dex-treated, group Average
[6] = KRN Day 14, Dex-treated, individual murine subject

Compound: C[C@@H]1C[C@H]2[C@@H]3CCC4=CC(=O)C=C[C@]4(C)[C@@]3(F)[C@@H](O)C[C@]2(C)[C@@]1(O)C(=O)CO [Dexamethasone]
- Normalized CT Value (Delta CT) IL1RAP_M [1]: 18.33
- Normalized CT Value (Delta CT) IL1RN—M [1]: 17.22
- Normalized CT Value (Delta CT) IL6_M [1]: 25.38
- Normalized CT Value (Delta CT) JUN_M [1]: 18.89
- Normalized CT Value (Delta CT) MEF2C—M [1]: 18.74
- Normalized CT Value (Delta CT) MMP9—M [1]: 13.84
- Normalized CT Value (Delta CT) NFKB1—M [1]: 15.89
- Normalized CT Value (Delta CT) PADI4—M [1]: 18.34
- Normalized CT Value (Delta CT) PLA2G7—M [1]: 14.34
- Normalized CT Value (Delta CT) PTPRC_M [1]: 13.18
- Normalized CT Value (Delta CT) PTX3_M [1]: 25.34
- Normalized CT Value (Delta CT) SERPINE1_M [1]: 19.43
- Normalized CT Value (Delta CT) TGFB1_M [1]: 14.97
- Normalized CT Value (Delta CT) TIMP1_M [1]: 24.84
- Normalized CT Value (Delta CT) TLR2_M [1]: 17.04
- Normalized CT Value (Delta CT) TLR4_M [1]: 17.74
- Normalized CT Value (Delta CT) TNFSF5—M [1]: 19.10
- Normalized CT Value (Delta CT) TNF_M [1]: 19.04
- Normalized CT Value (Delta CT) VEGF_M [1]: 20.01
- Normalized CT Value (Delta CT) IL1RAP_M [2]: 18.35 and 18.23 and 18.52 and 17.82 and 18.87 and 18.20
- Normalized CT Value (Delta CT) IL1RN—M [2]: 17.09 and 17.55 and 17.42 and 16.65 and 17.60 and 17.00
- Normalized CT Value (Delta CT) IL6_M [2]: 25.25 and 25.61 and 25.41 and 25.23 and 25.30 and 25.45
- Normalized CT Value (Delta CT) JUN_M [2]: 18.66 and 18.44 and 19.15 and 18.37 and 19.81 and 18.91
- Normalized CT Value (Delta CT) MEF2C—M [2]: 19.10 and 17.75 and 19.18 and 18.50 and 19.03 and 18.87
- Normalized CT Value (Delta CT) MMP9—M [2]: 13.85 and 13.83
- Normalized CT Value (Delta CT) NFKB1—M [2]: 16.06 and 14.93 and 16.25 and 15.43 and 16.52 and 16.16
- Normalized CT Value (Delta CT) PADI4—M [2]: 18.44 and 18.48 and 18.77 and 17.63 and 18.63 and 18.10
- Normalized CT Value (Delta CT) PLA2G7—M [2]: 14.36 and 13.77 and 14.74 and 13.71 and 14.94 and 14.53
- Normalized CT Value (Delta CT) PTPRC_M [2]: 13.36 and 12.55 and 13.38 and 12.76 and 13.68 and 13.33
- Normalized CT Value (Delta CT) PTX3_M [2]: 25.27 and 25.26 and 25.48 and 25.42 and 25.11 and 25.50
- Normalized CT Value (Delta CT) SERPINE1_M [2]: 19.43 and 18.99 and 19.66 and 19.03 and 19.81 and 19.67
- Normalized CT Value (Delta CT) TGFB1_M [2]: 15.24 and 14.22 and 15.34 and 14.62 and 15.36 and 15.02
- Normalized CT Value (Delta CT) TIMP1_M [2]: 24.76 and 24.74 and 24.73 and 24.34 and 25.09 and 25.40
- Normalized CT Value (Delta CT) TLR2_M [2]: 17.41 and 16.20 and 17.63 and 16.31 and 17.86 and 16.84
- Normalized CT Value (Delta CT) TLR4_M [2]: 17.64 and 17.44 and 18.32 and 16.84 and 18.23 and 17.96
- Normalized CT Value (Delta CT) TNFSF5—M [2]: 19.49 and 18.16 and 19.15 and 18.68 and 19.51 and 19.59
- Normalized CT Value (Delta CT) TNF_M [2]: 19.01 and 18.04 and 19.79 and 18.91 and 19.32 and 19.14
- Normalized CT Value (Delta CT) VEGF_M [2]: 20.04 and 20.59 and 20.09 and 19.19 and 20.31 and 19.85
- ABCA1_M Normalized CT Value (Delta CT) [3]: 17.55
- APAF1_M Normalized CT Value (Delta CT) [3]: 18.58
- CASP1_M Normalized CT Value (Delta CT) [3]: 17.59
- CASP3_M Normalized CT Value (Delta CT) [3]: 17.32
- CCR3_M Normalized CT Value (Delta CT) [3]: 18.72
- CD3Z_M Normalized CT Value (Delta CT) [3]: 16.52
- CD8A_M Normalized CT Value (Delta CT) [3]: 17.53
- CD14_M Normalized CT Value (Delta CT) [3]: 19.08
- CD86_M Normalized CT Value (Delta CT) [3]: 21.94
- CSPG2_M Normalized CT Value (Delta CT) [3]: 18.69
- F3_M Normalized CT Value (Delta CT) [3]: 22.96
- HMOX1_M Normalized CT Value (Delta CT) [3]: 17.15
- HSPA1A—M Normalized CT Value (Delta CT) [3]: 21.13
- ICAM1—M Normalized CT Value (Delta CT) [3]: 18.39
- IFI16—M Normalized CT Value (Delta CT) [3]: 16.29
- IL1B_M Normalized CT Value (Delta CT) [3]: 13.94
- IL10_M Normalized CT Value (Delta CT) [3]: 25.42
- ABCA1_M Normalized CT Value (Delta CT) [4]: 18.22 and 16.54 and 17.90 and 16.93 and 18.24 and 17.49
- APAF1_M Normalized CT Value (Delta CT) [4]: 18.85 and 18.10 and 18.95 and 18.00 and 19.01 and 18.59
- ARG2_M Normalized CT Value (Delta CT) [4]: 17.02 and 17.06 and 17.28 and 16.20 and 17.35 and 16.48
- CASP1_M Normalized CT Value (Delta CT) [4]: 17.64 and 16.61 and 18.07 and 17.26 and 18.15 and 17.79
- CASP3_M Normalized CT Value (Delta CT) [4]: 17.09 (2×) and 17.18 and 17.10 and 17.91 and 17.54
- CCR3_M Normalized CT Value (Delta CT) [4]: 18.09 and 18.62 and 18.24 and 18.86 and 18.96 and 19.54
- CD3Z_M Normalized CT Value (Delta CT) [4]: 16.64 and 15.65 and 16.81 and 16.13 and 16.77 and 17.10
- CD8A_M Normalized CT Value (Delta CT) [4]: 17.59 and 17.17 and 17.84 and 17.11 and 17.75 and 17.73
- CD14_M Normalized CT Value (Delta CT) [4]: 19.53 and 18.14 and 19.42 and 18.23 and 20.06 and 19.13
- CD86_M Normalized CT Value (Delta CT) [4]: 22.58 and 20.83 and 22.75 and 21.71 and 22.21 and 21.57
- CSPG2_M Normalized CT Value (Delta CT) [4]: 19.41 and 17.60 and 19.56 and 17.94 and 19.13 and 18.51
- F3_M Normalized CT Value (Delta CT) [4]: 22.15 and 23.54 and 24.16 and 21.10 and 25.46 and 21.36
- HMOX1_M Normalized CT Value (Delta CT) [4]: 17.27 and 16.34 and 17.85 and 15.97 and 18.08 and 17.40
- HSPA1A—M Normalized CT Value (Delta CT) [4]: 21.03 and 20.92 and 21.32 and 20.88 and 21.99 and 20.62
- ICAM1—M Normalized CT Value (Delta CT) [4]: 18.70 and 17.80 and 18.96 and 18.10 and 18.69 and 18.08
- IFI16—M Normalized CT Value (Delta CT) [4]: 16.35 and 14.96 and 17.17 and 16.15 and 16.73 and 16.40
- IL1B_M Normalized CT Value (Delta CT) [4]: 14.33 and 13.94 and 14.24 and 13.43 and 14.32
- IL10_M Normalized CT Value (Delta CT) [4]: 25.39 and 25.60 and 25.53 and 25.18 and 25.34 and 25.45
- Normalized CT Value (Delta CT) IL1RAP_M [5]: 18.59
- Normalized CT Value (Delta CT) IL1RN—M [5]: 17.70
- Normalized CT Value (Delta CT) IL6_M [5]: 25.48
- Normalized CT Value (Delta CT) JUN_M [5]: 19.67
- Normalized CT Value (Delta CT) MEF2C—M [5]: 20.33
- Normalized CT Value (Delta CT) MMP9—M [5]: 14.45
- Normalized CT Value (Delta CT) NFKB1—M [5]: 17.29
- Normalized CT Value (Delta CT) PADI4—M [5]: 18.79
- Normalized CT Value (Delta CT) PLA2G7—M [5]: 15.21
- Normalized CT Value (Delta CT) PTPRC_M [6]: 14.30
- Normalized CT Value (Delta CT) PTX3_M [6]: 25.29
- Normalized CT Value (Delta CT) SERPINE1_M [6]: 19.63
- Normalized CT Value (Delta CT) TGFB1_M [6]: 16.04
- Normalized CT Value (Delta CT) TIMP1_M [6]: 25.27
- Normalized CT Value (Delta CT) TLR2_M [6]: 18.52
